In the assay the test system is influenza type A virus, Cygnus columbianus/Shimane/499/83 (H5N3) (avian strain).

Turning to `[O]=[Ca]` [Sample 1, calcium oxide], the “antiviral effect (in words, comparison of samples)” value was “high antiviral effect”.
